Experimental data: ChEMBL document CHEMBL4321839, “Structure-activity relationships (SAR) of triazine derivatives: Promising antimicrobial agents” (Eur J Med Chem, 2020)
Values after ≈ are worked out from the molar mass of the structure shown.

Assays:
Staphylococcus aureus [1] = assay: Antimicrobial activity methicillin-resistant against Staphylococcus aureus; assay type: functional
Escherichia coli [2] = assay: Antimicrobial activity multi drug-resistant against Escherichia coli; assay type: functional
Escherichia coli [3] = assay: Antimicrobial activity against Escherichia coli ATCC 25922 assessed as reduction in microbial growth after 24 to 48 hrs by microdilution susceptibility test; assay type: functional
Staphylococcus aureus [4] = assay: Antimicrobial activity against Staphylococcus aureus […] assessed as reduction in microbial growth after 24 to 48 hrs by microdilution susceptibility test; assay type: functional
[5] = Cytotoxicity against African green monkey Vero cells incubated for 72 hrs by MTT assay; assay type: cell-based; settings: chlorocebus sabaeus
Escherichia coli [6] = assay: Antimicrobial activity against multi drug-resistant Escherichia coli assessed as reduction in microbial growth after 24 to 48 hrs by microdilution susceptibility test; assay type: functional
Staphylococcus aureus [7] = assay: Antimicrobial activity against methicillin-resistant Staphylococcus aureus assessed as reduction in microbial growth after 24 to 48 hrs by microdilution susceptibility test; assay type: functional
Bacillus subtilis [8] = assay: Antimicrobial activity against Bacillus subtilis NCIM-2063 assessed as reduction in microbial growth after 24 hrs by CLSI based broth dilution method; assay type: functional; settings: NCIM-2063, 24 h
Escherichia coli [9] = assay: Antimicrobial activity against Escherichia coli NCIM-2065 assessed as reduction in microbial growth after 24 hrs by CLSI based broth dilution method; assay type: functional; settings: NCIM-2065, 24 h
Staphylococcus aureus [10] = assay: Antimicrobial activity against Staphylococcus aureus NCIM-2079 assessed as zone of inhibition at 5 ug after 24 hrs by disk diffusion method; assay type: functional; settings: NCIM-2079, 24 h, read-out: IZ
Bacillus subtilis [11] = assay: Antimicrobial activity against Bacillus subtilis NCIM-2063 assessed as zone of inhibition at 5 ug after 24 hrs by disk diffusion method; assay type: functional; settings: NCIM-2063, 24 h, read-out: IZ
Pseudomonas aeruginosa = assay: Antimicrobial activity against Pseudomonas aeruginosa NCIM-2036 after 24 hrs by CLSI based broth dilution method; assay type: functional; settings: NCIM-2036, 24 h
Candida albicans = assay: Antifungal activity against Candida albicans NCIM-3102 at 18 to 24 hrs by CLSI based alamar blue assay; assay type: functional
Nakaseomyces glabratus = assay: Antifungal activity against Candida glabrata NCIM-3266 at 18 to 24 hrs by CLSI based alamar blue assay; assay type: functional
Klebsiella pneumoniae = assay: Antimicrobial activity against multi drug-resistant Klebsiella pneumoniae assessed as reduction in microbial growth by two-fold serial dilution method; assay type: functional
Lacticaseibacillus casei = assay: Antibacterial activity against Lactobacillus casei NCIM-2651 assessed as reduction in microbial growth incubated for 24 hrs by broth dilution method; assay type: functional; settings: NCIM-2651, 24 h
Staphylococcus aureus [12] = assay: Antimicrobial activity against methicillin-resistant Staphylococcus aureus clinical isolate MRSA1 assessed as reduction in microbial growth by two-fold serial dilution method; assay type: functional
Proteus vulgaris = assay: Antimicrobial activity against Proteus vulgaris NCIM-2027 assessed as reduction in microbial growth after 24 hrs by CLSI based broth dilution method; assay type: functional; settings: NCIM-2027, 24 h

Compound COc1ccc(C2=NN=C3C(F)CC4=C(C(C5CC5)C=C(C(=O)O)C4=O)N3C2)cc1OC (configuration not stated) has an MIC (Staphylococcus aureus [1]) of 1 µg/mL (≈ 2.28 µM) and an MIC (Escherichia coli [2]) of 0.5 µg/mL (≈ 1.14 µM).
O=C(O)c1ccc(Nc2nc(Cl)nc(N3CCCCC3)n2)cc1 gave an MIC (Escherichia coli [3]) of 25 µg/mL, an MIC (Staphylococcus aureus [4]) of 25 µg/mL and a CC50 at 72 h [5] of 125 µg/mL (≈ 374 µM). It also gave an MIC (Escherichia coli [6]) of 25 µg/mL and an MIC (Staphylococcus aureus [7]) of 100 µg/mL.
With O=C(CNc1nc(NCC(=O)N/N=C/c2ccc(Cl)cc2)nc(Nc2ccc(Nc3nc(NCC(=O)N/N=C/c4ccc(Cl)cc4)nc(NCC(=O)N/N=C/c4ccc(Cl)cc4)n3)cc2)n1)N/N=C/c1ccc(Cl)cc1 the MIC (Escherichia coli [3]) was 12.5 to 25 µg/mL and the MIC (Staphylococcus aureus [4]) was 12.5 to 25 µg/mL.
For O=C(O)c1ccc(Nc2nc(Cl)nc(NCc3ccccc3)n2)cc1, the MIC (Escherichia coli [3]) was 50 µg/mL, the MIC (Staphylococcus aureus [4]) was 12.5 µg/mL and the CC50 at 72 h [5] was 225 µg/mL (≈ 632 µM). The MIC (Escherichia coli [6]) was 100 µg/mL and the MIC (Staphylococcus aureus [7]) was 25 µg/mL.
Work on C[C@H]1COc2c(N3CCN(C)CC3)c(F)cc3c(=O)c(C(=O)O)cn1c23.C[C@H]1COc2c(N3CCN(C)CC3)c(F)cc3c(=O)c(C(=O)O)cn1c23.O [LEVOFLOXACIN] yielded an MIC (Bacillus subtilis [8]) of 3.12 µg/mL, an MIC (Escherichia coli [9]) of 3.12 µg/mL and a zone of inhibition at 5 µg/disc (Staphylococcus aureus [10]) of 14 to 15 mm. The zone of inhibition at 5 µg/disc (Bacillus subtilis [11]) was 14 to 15 mm.
In the case of O=C(O)C1=CC(C2CC2)C2=C(CC(F)C3=NN=C(c4ccccc4F)CN32)C1=O (configuration not stated), the MIC (Staphylococcus aureus [1]) is reported as 0.25 to 8 µg/mL (≈ 0.629 to 20.1 µM) and the MIC (Escherichia coli [2]) is reported as 0.25 µg/mL (≈ 0.629 µM).
In the case of CC1=NN(c2ccccc2)C(C)C1Nc1nnc(Sc2nc(Nc3ccc(Br)cc3)nc(Nc3ccc(Br)cc3)n2)s1 (configuration not stated), the MIC (Pseudomonas aeruginosa) is reported as 6.25 µg/mL (≈ 8.63 µM).
O=[N+]([O-])c1ccc(-c2csc(Nc3nc(N(c4ccccc4)c4ccccc4)nc(N(c4ccccc4)c4ccccc4)n3)n2)cc1 showed an MIC (Candida albicans) of 0.32 µg/mL (≈ 0.504 µM) and an MIC (Nakaseomyces glabratus) of 0.32 µg/mL (≈ 0.504 µM).
With CC1(C)S[C@@H]2[C@H](NC(=O)[C@H](N)c3ccccc3)C(=O)N2[C@H]1C(=O)O.O.O.O [AMPICILLIN TRIHYDRATE] the MIC (Escherichia coli [3]) was 25 µg/mL and the MIC (Staphylococcus aureus [4]) was 12.5 µg/mL.
For O=C(N/N=C/c1ccccc1)c1ccc(Nc2nc(N3CCCCC3)nc(N3CCCCC3)n2)cc1, the MIC (Klebsiella pneumoniae) was 50 µg/mL and the CC50 at 72 h [5] was 250 µg/mL (≈ 516 µM).
Cc1ccc(C2=NN=C3C(F)CC4=C(C(C5CC5)C=C(C(=O)O)C4=O)N3C2)cc1 (configuration not stated) gave an MIC (Staphylococcus aureus [1]) of 0.5 µg/mL (≈ 1.27 µM) and an MIC (Escherichia coli [2]) of 0.25 µg/mL (≈ 0.635 µM).
For CN[C@@H]1[C@H](O[C@H]2[C@H](O[C@H]3[C@H](O)[C@@H](O)[C@H](N=C(N)N)[C@@H](O)[C@@H]3N=C(N)N)O[C@@H](C)[C@]2(O)C=O)O[C@@H](CO)[C@H](O)[C@H]1O [STREPTOMYCIN], the MIC (Lacticaseibacillus casei) was 12.5 µg/mL.
In the case of CC(C)Nc1nc(Nc2nc(-c3ccc(Cl)cc3)cs2)nc(NC(C)C)n1, the MIC (Candida albicans) is reported as 5 µg/mL (≈ 12.4 µM).
CC1=NN(c2ccccc2)C(C)C1Nc1nnc(Sc2nc(Nc3ccc(F)cc3)nc(Nc3ccc(F)cc3)n2)s1 (configuration not stated) showed an MIC (Pseudomonas aeruginosa) of 6.25 µg/mL (≈ 10.4 µM).
Work on O=C(N/N=C/c1ccc2c(c1)OCO2)c1ccc(Nc2nc(N3CCCCC3)nc(N3CCCCC3)n2)cc1 yielded an MIC (Staphylococcus aureus [12]) of 25 µg/mL and a CC50 at 72 h [5] of 250 µg/mL (≈ 473 µM).
Work on Nc1nc(Nc2nc(-c3ccc(Cl)cc3)cs2)nc(Sc2ccccc2)n1 yielded an MIC (Lacticaseibacillus casei) of 3.12 µg/mL.
In the case of Clc1ccc(-c2csc(Nc3nc(N(c4ccccc4)c4ccccc4)nc(N(c4ccccc4)c4ccccc4)n3)n2)cc1, the MIC (Candida albicans) is reported as 0.63 µg/mL (≈ 1.01 µM).
With Nc1nc(N)nc(Nc2ccc(C(=O)N/N=C/c3ccco3)cc2)n1 the MIC (Staphylococcus aureus [12]) was 3.12 µg/mL, the MIC (Klebsiella pneumoniae) was 12.5 µg/mL and the CC50 at 72 h [5] was 125 µg/mL (≈ 369 µM).
For C=CC1=C(C(=O)O)N2C(=O)[C@@H](NC(=O)/C(=N\OCC(=O)O)c3csc(N)n3)[C@H]2SC1 [CEFIXIME], the MIC (Proteus vulgaris) was 3.91 to 7.81 µg/mL, the MIC (Escherichia coli [9]) was 3.91 to 7.81 µg/mL and the MIC (Pseudomonas aeruginosa) was 3.12 to 6.25 µg/mL (≈ 6.89 to 13.8 µM).
